One substance from US11203633B2, “Polynucleotides encoding antibodies or antigen binding fragments thereof that bind pseudomonas perv” (priority 2011, dated 2021) can be followed below.

Experiment [1] has as its system luminescent P. aeruginosa serogroup 05 strain (PAO1.lux). The experiment in a line: Opsonophagocytic killing (OPK) assay, PAO1.lux. In kind it is cell-based, Pseudomonas aeruginosa. As to the method:
(§1) This example describes the evaluation of prioritized human IgG1 antibodies to promote OPK of P. aeruginosa. […] OPK assays were performed as described in (DiGiandomenico, A., et al., Infect Immun 72, 7012-7021 (2004)), with modifications. Briefly, assays were performed in 96-well plates using 0.025 ml of each OPK component; P. aeruginosa strains; diluted baby rabbit serum; differentiated HL-60 cells; and monoclonal antibody. In some OPK assays, luminescent P. aeruginosa strains, which were constructed as described (Choi, K. H., et al., Nat Methods 2, 443-448 (2005)), were used. Luminescent OPK assays were performed as described above but with determination of relative luciferase units (RLUs) using a Perkin Elmer ENVISION Multilabel plate reader (Perkin Elmer).

The test system of experiment [2] is P. aeruginosa strains 6077, 6206, 6294. Briefly: Thermal injury model in mice, survival. It is filed as in vivo, Pseudomonas aeruginosa. The note with it: 6077 2×10^5 CFU, FIG. 8E. As to the method: Antibodies or PBS were administered 24 hours before infection in each model. P. aeruginosa acute pneumonia, keratitis, and thermal injury infection models were performed as described (DiGiandomenico, A., et al., Proc Natl Acad Sci USA 104, 4624-4629 (2007)), with modifications. In the acute pneumonia model, BALB/c mice (The Jackson Laboratory) were infected with P. aeruginosa strains suspended in a 0.05 ml inoculum. In the thermal injury model, CF-1 mice (Charles River) received a 10% total body surface area burn with a metal brand heated to 92° C. for 10 seconds. Animals were infected subcutaneously with P. aeruginosa strain 6077 at the indicated dose. For organ burden experiments, acute pneumonia was induced in mice followed by harvesting of lungs, spleens, and kidneys 24 hours post-infection for determination of CFU.
Survival effect of the Bs4-GLO bispecific antibody was evaluated in a P. aeruginosa thermal injury model against different P. aeruginosa strains. […] Animals were treated with Bs4-GLO or […] to induction of thermal injury and subcutaneous infection with P. aeruginosa strain (A) 6077 (O11-ExoU^+) or (B) 6206 (O11-ExoU^+) or (C) 6294 (06) directly under the wound.
(A) Animals were treated with Bs4-GLO or R347 (A) 4h hours or (B) 12 hours after induction of thermal injury and subcutaneous infection with P. aeruginosa strain 6077 (O11-ExoU^+) directly under the wound.

Experiment [3] relates to luminescent P. aeruginosa serogroup 011 strain (9882-80.lux). Briefly: OPK assay, 9882-80.lux. In kind it is cell-based, Pseudomonas aeruginosa. The note with it: strain 9882-80 (O11); FIG. 2B. Here is the method: as §1
The ability of the WapR-004 and Cam-003 antibodies to mediate OPK activity against another clinically relevant 0-antigen serotype strain, 9882-80.lux, was evaluated.

Experiment [4] has as its system P. aeruginosa strain 6077 (O11-cytotoxic). The experiment in a line: Corneal infection (ocular keratitis) model in mice. It is filed as in vivo, Pseudomonas aeruginosa.

“Cam-003: anti-Psl human IgG1 monoclonal antibody; VH SEQ ID NO:1, VL SEQ ID NO:2” registered an OPK EC50 in experiment [1] (FIG. 9A, unit inferred) of 0.06 µg/mL. In addition, the “OPK activity (killing of PAO1.lux)” value in experiment [1] (purified human IgG1 mAbs from phage panning, FIG. 2A) is “superior OPK activity”. The “survival R347 vs. Cam-003, log-rank P” value in experiment [2] (5 mg/kg) was 0.0017; in experiment [2] (15 mg/kg) it was 0.0094. Also, the “protection compared to the antibody-treated control” value in experiment [2] (CF-1 mice) is “significant protection at 15 and 5 mg/kg”. In addition, in experiment [3], the OPK activity entry was “OPK activity extends to strain 9882-80 (O11)”. The “difference vs control IgG1 (pathology scores / viable CFU), Mann-Whitney U-test P” value in experiment [4] (15 mg/kg, FIG. 8C) turned out to be 0.0003; in experiment [4] (15 mg/kg, FIG. 8D), 0.0015; in experiment [4] (45 mg/kg, FIG. 8A) it was 0.0001. The “corneal pathology and bacterial counts vs negative control-treated animals” value in experiment [4] (6077, antibody 24 hours prior to infection, FIG. 8A-D, F-G) is “significantly less pathology and reduced bacterial counts in total eye homogenates”.
